Data on nine molecules can be found in ChEMBL document CHEMBL5034027, “Synthesis and evaluation of stereoisomers of methylated catechin and epigallocatechin derivatives on modulating P-glycoprotein-mediated multidrug resistance in cancers” (Eur J Med Chem, 2021).

Data set [1] in a line: Reversal of P-glycoprotein mediated drug resistance in human LCC6MDR cells assessed as reversal of paclitaxel resistance measured after 5 days by Cell Titer-Glo luminescence assay. In kind it is cell-based. The settings on record: 120 h. In general terms: Cellular ATP, detected with luciferase, serves as a proxy for viable cell number.
For another data set, the system named is P-gp. Description: Selectivity index, ratio of IC50 for cytotoxicity against mouse L929 cells to EC50 for inhibition of P-gp in human LCC6MDR cells assessed as reversal of paclitaxel resistance. The format is toxicity, cell-based. As to conditions: L929 cells (cytotoxicity IC50) and LCC6MDR cells (P-gp EC50), probe paclitaxel, read-out: Selectivity Index.

A further data set deals with L929. Description: Cytotoxicity against mouse L929 cells assessed as reduction in cell viability incubated for 72 hrs by MTS assay. The format is cell-based. The settings on record: L929, 72 h. In general terms: Formazan colour is commonly taken as a measure of viable cells.
Data set [2] is described as follows: Reversal of P-glycoprotein mediated drug resistance in human LCC6MDR cells assessed as reversal of Dox resistance measured after 5 days by Cell Titer-Glo luminescence assay. The settings on record: 120 h.
In data set [3] the target is T1, ATP-dependent translocase ABCB1 (Homo sapiens, UniProt P08183). The experiment in a line: Inhibition of P-gp in human LCC6MDR cells assessed as intracellular DOX retention at 2 uM incubated for 60 mins by flow cytometry analysis relative to control. The format is cell-based. Details: scale not given: the % may be the effect or the level left. The settings on record: 1 h. In general terms: Flow cytometry measures light scatter and fluorescence of single cells or particles in a stream.

The target of data set [4] is T1, ATP-dependent translocase ABCB1. The experiment in a line: Inhibition of P-gp in human LCC6MDR cells assessed as intracellular DOX retention at 2 uM incubated for 120 mins by flow cytometry analysis relative to control. In kind it is cell-based. Details: scale not given: the % may be the effect or the level left. As to conditions: 2 h.
For data set [5] the target is unchanged. The experiment in a line: Inhibition of P-gp in human LCC6MDR cells assessed as intracellular DOX retention at 2 uM incubated for 90 mins by flow cytometry analysis relative to control. More on the design: scale not given: the % may be the effect or the level left. The format is cell-based.

T1 sequence (P08183 whole entry): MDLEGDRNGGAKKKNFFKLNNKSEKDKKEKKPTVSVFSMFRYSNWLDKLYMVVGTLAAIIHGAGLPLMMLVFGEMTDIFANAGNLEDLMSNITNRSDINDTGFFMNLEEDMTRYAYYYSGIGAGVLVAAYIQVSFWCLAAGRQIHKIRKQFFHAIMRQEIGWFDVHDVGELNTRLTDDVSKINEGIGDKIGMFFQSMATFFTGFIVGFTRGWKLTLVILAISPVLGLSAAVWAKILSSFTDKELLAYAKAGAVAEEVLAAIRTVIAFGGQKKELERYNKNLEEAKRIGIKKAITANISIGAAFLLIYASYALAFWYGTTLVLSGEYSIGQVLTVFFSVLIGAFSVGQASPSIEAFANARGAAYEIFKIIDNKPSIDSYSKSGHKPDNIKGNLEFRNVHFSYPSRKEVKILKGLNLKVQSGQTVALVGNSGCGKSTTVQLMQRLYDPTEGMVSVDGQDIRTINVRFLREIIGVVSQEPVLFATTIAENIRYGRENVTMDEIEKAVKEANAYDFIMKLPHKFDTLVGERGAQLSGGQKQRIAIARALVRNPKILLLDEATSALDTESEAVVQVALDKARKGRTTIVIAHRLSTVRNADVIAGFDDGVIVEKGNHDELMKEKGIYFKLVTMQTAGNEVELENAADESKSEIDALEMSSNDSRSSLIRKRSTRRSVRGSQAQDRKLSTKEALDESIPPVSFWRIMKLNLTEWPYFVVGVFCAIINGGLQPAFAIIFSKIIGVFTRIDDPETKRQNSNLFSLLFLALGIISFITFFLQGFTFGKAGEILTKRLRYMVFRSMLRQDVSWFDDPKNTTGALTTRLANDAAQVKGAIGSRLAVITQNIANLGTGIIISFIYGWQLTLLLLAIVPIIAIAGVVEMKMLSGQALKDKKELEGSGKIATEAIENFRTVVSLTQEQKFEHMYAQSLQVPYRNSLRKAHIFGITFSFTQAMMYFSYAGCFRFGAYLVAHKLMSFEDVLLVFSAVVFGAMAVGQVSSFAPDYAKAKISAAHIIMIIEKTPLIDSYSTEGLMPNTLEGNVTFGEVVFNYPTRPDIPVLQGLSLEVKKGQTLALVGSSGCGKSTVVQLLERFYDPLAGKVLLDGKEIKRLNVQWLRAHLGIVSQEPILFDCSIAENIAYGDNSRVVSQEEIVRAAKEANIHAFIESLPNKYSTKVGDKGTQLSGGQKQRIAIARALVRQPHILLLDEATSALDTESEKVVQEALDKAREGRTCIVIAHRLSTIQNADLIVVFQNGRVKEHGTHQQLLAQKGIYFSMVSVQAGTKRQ

As for `COc1cc(OC)c2c(c1)O[C@H](c1cc(OC)c(OC)c(OC)c1)[C@H](OC(=O)c1ccc(F)c(NC(=O)c3ccc(OC)c(OC)c3)c1)C2`, the EC50 in data set [1] turned out to be 0.159 µM.

On to `COc1cc(OC)c2c(c1)O[C@@H](c1cc(OC)c(OC)c(OC)c1)[C@H](OC(=O)c1ccc(F)c(NC(=O)c3cc(OC)c(OC)c(OC)c3)c1)C2`, for which the selectivity ratio in the data set with P-gp is over 741. In data set [1], the EC50 was 0.135 µM. Besides, the IC50 in the data set on L929 was over 100 µM. With `COc1cc(OC)c2c(c1)O[C@H](c1ccc(OC)c(OC)c1)[C@@H](OC(=O)c1ccc(F)c(NC(=O)/C=C/c3cc(OC)c(OC)c(OC)c3)c1)C2`, the selectivity ratio in the data set with P-gp is over 563. For the same molecule, in data set [1], the EC50 came out at 0.177 µM. Moreover, in the data set on L929, the IC50 was over 100 µM.

As for `COc1cc(OC)c2c(c1)O[C@H](c1cc(OC)c(OC)c(OC)c1)[C@@H](OC(=O)c1ccc(F)c(NC(=O)c3cc(OC)c(OC)c(OC)c3)c1)C2`, the EC50 in data set [1] was determined as 0.14 µM. On the same count and under the same terms, the same measure for `O=C(O[C@@H]1Cc2c(O)cc(O)cc2O[C@@H]1c1cc(O)c(O)c(O)c1)c1cc(O)c(O)c(O)c1` [EPIGALOCATECHIN GALLATE]: over 1 µM. On to `COc1ccc(CCN(C)CCCC(C#N)(c2ccc(OC)c(OC)c2)C(C)C)cc1OC` (stereo not given), for which, in data set [2], the EC50 is 0.254 µM. Turning to `COc1cc(OC)c2c(c1)O[C@H](c1cc(OC)c(OC)c(OC)c1)[C@H](OC(=O)c1ccc(F)c(NC(=O)c3cc(OC)c(OC)c(OC)c3)c1)C2`, the concentration for a half-maximal effect (EC50) in data set [1] amounted to 0.214 µM. Still for that read-out and setting: the same measure for `COc1cc(OC)c2c(c1)O[C@H](c1cc(OC)c(OC)c(OC)c1)[C@@H](OC(=O)c1ccc(F)c(NC(=O)c3ccc(OC)c(OC)c3)c1)C2`: 0.171 µM.

As for `COc1cc(OC)c2c(c1)O[C@H](c1ccc(OC)c(OC)c1)[C@@H](OC(=O)c1ccc(F)c(NC(=O)c3cc(OC)c(OC)c(OC)c3)c1)C2`, the Activity was determined as 87% in data set [3], 90% in data set [4] and 89% in data set [5].

A word on the EC50: it is the concentration at which the effect is half-maximal. One may read the IC50 as the midpoint of a concentration-inhibition curve.
